From ChEMBL document CHEMBL1201862, “PubChem BioAssay data set” (2004) come the findings set out here.

Among the test systems are 786-0; ACHN; COLO 205; DU-145; HCC 2998; HCT-15; IGROV-1; MCF7; MDA-MB-231; MDA-N; MOLT-4; RXF 393; SF-295; SK-MEL-28; SK-MEL-2; SK-MEL-5; SNB-75; T47D; UO-31.
Test in all cases: NCI anticancer screen, dose series, 48 h

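Exposure lasted 48 hours, with cells grown in 96-well plates and compounds tested at five concentrations. At the GI50, growth is halved.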 Active and inactive are the calls of the source. Cut-off read from the data, not from the text of the source: active = GI50 up to about 1.1 µM and inactive = higher. Bounds are passed on as bounds.

For the molecule `Cc1cc(C)c2c(=O)cc(-c3ccccc3)[nH]c2c1`, the GI50 with 786-0 was 2.07 µM (inactive); in the test with ACHN it was 4.65 µM (inactive); with COLO 205, 1.17 µM (inactive); in the test on DU-145, 4.44 µM (inactive); in the test on HCC 2998, 1.38 µM (inactive); in the test on HCT-15, 0.828 µM. The GI50 is 2.86 µM (inactive) in the test on IGROV-1; 3.01 µM (inactive) in the test with MCF7; 8.22 µM (inactive) in the test with MDA-MB-231; 0.284 µM (active) in the test on MDA-N; 2.96 µM (inactive) in the test on MOLT-4; 1.61 µM (inactive) in the test on RXF 393. The GI50 in the test on SF-295 was 3.63 µM (inactive); in the test on SK-MEL-28, 2.52 µM (inactive); in the test with SK-MEL-2, 8.17 µM (inactive); in the test with SK-MEL-5 it was 1.3 µM (inactive); in the test with SNB-75, 3.16 µM (inactive); in the test with T47D, 12.5 µM (inactive). Also, in the test with UO-31, the GI50 was 9.46 µM (inactive).
For the molecule `O=S(=O)(O)c1cc(S(=O)(=O)O)c2c(/N=N/c3ccc(/N=N/c4ccccc4)cc3)c(O)ccc2c1`, the GI50 in the test on 786-0 is > 100 µM (inactive); in the test on ACHN, > 100 µM (inactive); in the test on COLO 205, > 100 µM (inactive); in the test on DU-145, > 100 µM (inactive); in the test with HCC 2998, > 100 µM (inactive); with HCT-15, over 100 µM. In addition, the GI50 with IGROV-1, in the test with MCF7, in the test with MDA-MB-231, in the test on MDA-N, in the test on MOLT-4 and with RXF 393 was > 100 µM (inactive) in each case. For the same molecule, the GI50 in the test with SF-295, with SK-MEL-28, with SK-MEL-2, with SK-MEL-5, in the test with SNB-75 and in the test with T47D was > 100 µM (inactive) in each case. For the same molecule, the GI50 in the test on UO-31 was > 100 µM (inactive).
`NCc1ccc(-c2ccc(CN)s2)s1`: the GI50 in the test on 786-0 is > 100 µM (inactive); with ACHN, > 100 µM (inactive); with COLO 205, 23 µM (inactive); with DU-145 it was > 100 µM (inactive); with HCC 2998, > 100 µM (inactive); with HCT-15, over 100 µM. In addition, the GI50 in the test on IGROV-1 was 10.9 µM (inactive); with MCF7, 44 µM (inactive); in the test with MDA-MB-231 it was > 100 µM (inactive); in the test on MDA-N it was > 100 µM (inactive); with MOLT-4 it was > 100 µM (inactive); in the test with RXF 393, > 100 µM (inactive). The GI50 in the test with SF-295 is > 100 µM (inactive); in the test with SK-MEL-28 it was > 100 µM (inactive); in the test with SK-MEL-2, > 100 µM (inactive); in the test with SK-MEL-5 it was > 100 µM (inactive); in the test on SNB-75, > 100 µM (inactive); in the test on T47D, 69.8 µM (inactive). Moreover, the GI50 in the test on UO-31 was > 100 µM (inactive).
Regarding `O=C1c2ccccc2C2(c3ccc(Cl)cc3)NCc3ccccc3CN12` (centres undefined), the GI50 was 13.6 µM (inactive) in the test on 786-0; 21.6 µM (inactive) in the test with ACHN; 15.1 µM (inactive) in the test with COLO 205; 21.3 µM (inactive) in the test with DU-145; 20.4 µM (inactive) with HCC 2998; 21.9 µM with HCT-15. Besides, the GI50 with IGROV-1 was 24.2 µM (inactive); in the test on MCF7, 17.4 µM (inactive); in the test on MDA-MB-231, 57.4 µM (inactive); with MDA-N, 56 µM (inactive); in the test with MOLT-4, 24.8 µM (inactive); with RXF 393 it was 16.1 µM (inactive). For the same molecule, the GI50 in the test with SF-295 was 18.3 µM (inactive); with SK-MEL-28, 25.2 µM (inactive); in the test on SK-MEL-2, 13.7 µM (inactive); with SK-MEL-5, 16 µM (inactive); in the test on SNB-75, 52.8 µM (inactive); in the test with T47D, 16.4 µM (inactive). Besides, the GI50 in the test with UO-31 was 22.5 µM (inactive).
As to `CCCC(CCC)C(=O)O` [VALPROIC ACID], the GI50 was > 100 µM (inactive) with 786-0; 5450 µM (inactive) in the test on ACHN; 4530 µM (inactive) with COLO 205; 10200 µM (inactive) in the test on DU-145; 5710 µM (inactive) in the test with HCC 2998; 8090 µM in the test with HCT-15. The GI50 in the test on IGROV-1 is 5430 µM (inactive); in the test with MCF7, 6580 µM (inactive); in the test on MDA-MB-231 it was 14700 µM (inactive); with MDA-N it was > 100 µM (inactive); with MOLT-4, 11200 µM (inactive); with RXF 393 it was 2570 µM (inactive). Also, the GI50 in the test on SF-295 is 7760 µM (inactive); in the test on SK-MEL-28, > 100 µM (inactive); in the test with SK-MEL-2, 8000 µM (inactive); in the test with SK-MEL-5 it was 2740 µM (inactive); in the test with SNB-75, 6150 µM (inactive); in the test with T47D, 7520 µM (inactive). Also, the GI50 with UO-31 was 6280 µM (inactive).
Turning to `O=S(=O)(O)c1ccc(/N=N/c2c(O)ccc3ccccc23)cc1`, the GI50 in the test on 786-0 was > 100 µM (inactive); in the test with ACHN, > 100 µM (inactive); in the test on COLO 205 it was > 100 µM (inactive); in the test with DU-145, > 100 µM (inactive); with HCC 2998 it was > 100 µM (inactive); in the test with HCT-15, over 100 µM. The GI50 with IGROV-1, with MCF7, in the test on MDA-MB-231, with MDA-N, in the test on MOLT-4 and in the test with RXF 393 was > 100 µM (inactive) in each case. The GI50 in the test with SF-295, in the test with SK-MEL-28, in the test on SK-MEL-2, with SK-MEL-5, in the test on SNB-75 and in the test on T47D was > 100 µM (inactive) in each case. The GI50 with UO-31 is > 100 µM (inactive).
As to `CC[C@@]1(O)C(=O)OCc2c1cc1n(c2=O)Cc2c-1nc1ccccc1c2/C=N\NC(=O)C(N)CC(C)C` (some centres undefined), the GI50 was < 0.01 µM (active) with 786-0; < 0.01 µM (active) in the test with ACHN; 0.708 µM (active) in the test with COLO 205; < 0.01 µM (active) in the test with DU-145; 0.118 µM (active) in the test with HCC 2998; 0.24 µM in the test on HCT-15. Also, the GI50 is 0.233 µM (active) in the test with IGROV-1; < 0.01 µM (active) in the test with MCF7; 1.25 µM (inactive) with MDA-MB-231; 0.171 µM (active) in the test on MDA-N; < 0.01 µM (active) with MOLT-4; < 0.0143 µM (active) in the test with RXF 393. Also, the GI50 is < 0.01 µM (active) in the test on SF-295; 0.605 µM (active) in the test with SK-MEL-28; 0.6 µM (active) in the test on SK-MEL-2; < 0.0128 µM (active) with SK-MEL-5; < 0.01 µM (active) with SNB-75; < 0.01 µM (active) in the test on T47D. Further, in the test with UO-31, the GI50 was < 0.0106 µM (active).
On to `Cc1ccc(C(=N)Nc2ccccc2)cc1`, for which the GI50 is > 100 µM (inactive) in the test on 786-0; > 100 µM (inactive) in the test on ACHN; 20.9 µM (inactive) with COLO 205; > 100 µM (inactive) in the test with DU-145; 8.13 µM (inactive) in the test on HCC 2998; over 100 µM in the test with HCT-15. Further, the GI50 with IGROV-1 was > 100 µM (inactive); in the test on MCF7, 41.9 µM (inactive); with MDA-MB-231, > 100 µM (inactive); in the test on MDA-N, > 100 µM (inactive); in the test with MOLT-4, > 100 µM (inactive); with RXF 393 it was > 100 µM (inactive). In addition, the GI50 was > 100 µM (inactive) with SF-295; > 100 µM (inactive) in the test with SK-MEL-28; > 100 µM (inactive) with SK-MEL-2; 89.7 µM (inactive) in the test on SK-MEL-5; > 100 µM (inactive) with SNB-75; > 100 µM (inactive) in the test with T47D. Also, in the test with UO-31, the GI50 was > 100 µM (inactive).
Consider `CN(C)CCCNC(=O)c1c(O)c2ccccc2n(C)c1=O`, for which the GI50 with 786-0 is 65.3 µM (inactive); with ACHN, 43.8 µM (inactive); in the test with COLO 205 it was 39.5 µM (inactive); with DU-145 it was > 100 µM (inactive); with HCC 2998, 82.2 µM (inactive); in the test on HCT-15, 51.1 µM. Besides, the GI50 in the test with IGROV-1 was > 100 µM (inactive); in the test with MCF7 it was 43.9 µM (inactive); with MDA-MB-231 it was 86.5 µM (inactive); in the test on MDA-N, 64.1 µM (inactive); with MOLT-4, 44.5 µM (inactive); with RXF 393 it was 35.5 µM (inactive). Further, the GI50 with SF-295 was 48.5 µM (inactive); with SK-MEL-28, 74.6 µM (inactive); with SK-MEL-2 it was 64.1 µM (inactive); in the test on SK-MEL-5, 53.7 µM (inactive); with SNB-75, 63.7 µM (inactive); with T47D, 71.3 µM (inactive). The GI50 in the test with UO-31 was 9.27 µM (inactive).
For the molecule `O=c1oc2ccccc2cc1-c1nc2ccccc2c(=O)[nH]1`, the GI50 with 786-0 was > 100 µM (inactive); with ACHN, 90.8 µM (inactive); with COLO 205, > 100 µM (inactive); in the test with DU-145 it was > 100 µM (inactive); in the test with HCC 2998, > 100 µM (inactive); in the test on HCT-15, over 100 µM. Moreover, the GI50 with IGROV-1 is > 100 µM (inactive); with MCF7 it was 12 µM (inactive); in the test with MDA-MB-231 it was > 100 µM (inactive); in the test on MDA-N it was > 100 µM (inactive); with MOLT-4, > 100 µM (inactive); with RXF 393 it was > 100 µM (inactive). Also, the GI50 with SF-295 was 54 µM (inactive); in the test with SK-MEL-28 it was > 100 µM (inactive); with SK-MEL-2 it was > 100 µM (inactive); with SK-MEL-5, > 100 µM (inactive); in the test with SNB-75, 69.3 µM (inactive); in the test on T47D, > 100 µM (inactive). The GI50 with UO-31 was > 100 µM (inactive).
`O=[N+]([O-])c1cccc2nccc(NCCN3CCOCC3)c12`: the GI50 in the test on 786-0 was 25.2 µM (inactive); in the test on ACHN it was 22.4 µM (inactive); in the test on COLO 205, 19.6 µM (inactive); with DU-145 it was 41.7 µM (inactive); in the test with HCC 2998 it was 11.5 µM (inactive); in the test on HCT-15, 9.35 µM. Further, the GI50 with IGROV-1 is 17.4 µM (inactive); in the test on MCF7 it was 9.46 µM (inactive); with MDA-MB-231 it was 21.7 µM (inactive); in the test with MDA-N, 16.7 µM (inactive); in the test on MOLT-4, 8.43 µM (inactive); with RXF 393, 11.6 µM (inactive). Moreover, the GI50 in the test with SF-295 was 13.9 µM (inactive); in the test on SK-MEL-28, 17.9 µM (inactive); with SK-MEL-2, 14.7 µM (inactive); in the test with SK-MEL-5 it was 10 µM (inactive); in the test with SNB-75, 16.5 µM (inactive); with T47D, 23 µM (inactive). In the test on UO-31, the GI50 was 27.2 µM (inactive).
